Calls of active or inactive are those of the source. How the calls were made is not given here. Some results are limits rather than exact numbers.

This experiment deals with Crimean-Congo hemorrhagic fever virus L protein viral ovarian tumor (vOTU) protease domain. The experiment is described as follows: CCHFV vOTU protease inhibitor potency, dose response, biochemical, fluorescence, Pep-AMC substrate (AID 720578). To be noted: recombinant CCHFV vOTU, Pep-AMC fluorescence cleavage.
On to `COC(=O)c1nc(-c2ccc3c(n2)C(=O)C(N)=C(OC)C3=O)c(N)c(-c2ccc(OC)c(OC)c2O)c1C`, for which the IC50 is 0.931 µM.

With `O=C1C(=O)c2ccccc2-c2ccccc21`, the IC50 is 2.4 µM.

As to `O=C(c1ccco1)[C@@H]1[C@@H]2C(=O)N(c3ccc(Br)cc3)C(=O)[C@@H]2C2c3ccccc3C=CN21` (stereo partly specified), the IC50 was 5.26 µM. Consider `Cc1ccc(S(=O)(=O)/N=C2\C=C(Nc3cccc(C(=O)O)c3)C(=O)c3ccccc32)cc1`, for which the concentration for half-maximal inhibition (IC50) is 0.771 µM.

As for `O=C(COC(=O)c1ccc([N+](=O)[O-])s1)Nc1ccc(Cl)cn1`, the IC50 is 8.32 µM. As to `O=C1C(N2CCOCC2)=C(n2nnc3ccccc32)C(=O)c2ccccc21`, the IC50 was 2.69 µM.

In the case of `O=[N+]([O-])c1cc(O)c2ncccc2c1`, the IC50 result is “inactive”. The figure for `Oc1c(N=Nc2nn[nH]n2)ccc2ccccc12` is 5.11 µM; for `COC1=C(N)C(=O)c2nc(C)ccc2C1=O` it is 1.37 µM.

With `O=C1C(Nc2cccc(O)c2)=C(N2CCCCC2)C(=O)c2ccccc21`, the IC50 is 3.6 µM. Regarding `CC(C)C[C@H](NC(=O)c1[nH]cnc1C(=O)N[C@@H](C)C(=O)OC(C)(C)C)C(=O)OC(C)(C)C`, the IC50 was > 115 µM (inactive). The entry for `COc1ccc(C(C[N+](=O)[O-])c2c(C)[nH]n(-c3ccccc3)c2=O)cc1` (stereo unspecified) is “inactive”. To `O=C(NC(=S)Nc1ccccc1N1CCCC1)c1ccccc1Br` belongs “inactive”; to `O=C(COC(=O)c1ccc([N+](=O)[O-])s1)Nc1ncc(C(F)(F)F)cc1Cl`, 8.84 µM; to `Cc1ccc(CNc2ccc(O)cc2)cc1`, “inactive”. Turning to `CCCCCCCCCCCCN1[C@@H](CC(=O)O)c2cc(F)ccc2S1(=O)=O`, the IC50 entry was “inactive”. With `Clc1ccc(C2=CSC3=Nc4cccc5cccc(c45)N23)cc1`, the IC50 result was “inactive”. The entry for `CC(C)NC1=C(Cl)C(=O)c2ccccc2C1=O` is “inactive”; for `CCOC(=O)c1cc2c(ccn2C)n1Cc1ccccc1C` it is > 115 µM (inactive); for `CC(=O)N(/N=C1\Sc2ccccc2C1=O)c1cccc(C)c1` it is “inactive”.

In the case of `Cc1ccc(S(=O)(=O)/N=C2\C=C(Nc3cccc(C(=O)O)c3)C(=O)c3ccccc32)c(C)c1`, the IC50 was 0.973 µM. The entry for `CC1(OC(=O)C2CCCC2)C(=O)C=C2C=C(c3ccsc3)N(CCCCO)C=C2C1=O` (stereo unspecified) is “inactive”; for `CC(=O)N(C1=C(N)C(=O)c2ccccc2C1=O)c1ccccc1` it is 8.38 µM. For the molecule `CCOc1ccc(NC(=S)Nc2ccc3nsnc3c2)cc1`, the IC50 was 7.51 µM. Consider `COc1cc(C=c2c3ccccc3n3c2cc(-c2ccccc2)[n+]3C)cc(OC)c1OC`, for which the IC50 was 6.76 µM. The entry for `O=C(NC(=S)Nc1ccccc1N1CCCC1)c1cccs1` is “inactive”; for `CCCCCCCCN1C(=O)[C@@H](CC(=O)NCCCOCCCC)C[C@@]2(C(=O)OC)C1=C[C@H](C(C)C)O[C@@H]2C1CC1` it is “inactive”; for `CCOC(=O)C1CCN(C(=O)c2c(C)oc3c2C(=O)c2ccccc2C3=O)CC1` it is “inactive”.

Take `CN1CCC/C1=C/C=C1\SC(=S)NC1=O`: the IC50 entry was “inactive”. To `O=c1[nH]c(Nc2ccccc2)cc2cc(Br)ccc12` belongs 1 µM; to `CC(=O)c1ccc(NC2=C(N3CCOCC3)C(=O)c3ccccc3C2=O)cc1`, “inactive”; to `CCCCCCCCCCCCCCCC[n+]1cccc2ccccc21`, “inactive”.

For the molecule `CCN(CC)CCCC(C)n1c2nc(=O)[nH]c(=O)c-2nc2cc(Cl)ccc21` (stereo unspecified), the half-maximal inhibitory concentration (IC50) was 2.5 µM. With `O=C(O)c1cccc(NC2=C(N3CCOCC3)C(=O)c3ccccc3C2=O)c1`, the IC50 entry was “inactive”. Consider `O=C(COC(=O)c1ccc([N+](=O)[O-])s1)Nc1ccccc1`, for which the IC50 result was “inactive”. To `Cc1cc(=O)c2c(o1)C(=O)c1occc1C2=O` belongs 6.05 µM; to `CC(=O)N(C)c1ccc(N=Cc2cc3c(cc2[N+](=O)[O-])OCO3)cc1`, “inactive”; to `CC(=O)c1ccc(NC(=S)Nc2cccc3cnccc23)cc1`, 6.84 µM. The figure for `O=C(O)c1ccc(NC2=C/C(=N/S(=O)(=O)c3cccs3)c3ccccc3C2=O)cc1` is 0.384 µM; for `CC[n+]1c(-c2ccccc2)c2cc(N)ccc2c2ccc(N)cc21` it is 1.56 µM; for `CC1(C)C=C2C(=NN(c3ccccc3)C(N)=C2C#N)CO1` it is 1.83 µM. As to `COc1ccc(S(=O)(=O)/N=C2\C=C(Nc3ccc(O)cc3)C(=O)c3ccccc32)cc1`, the half-maximal inhibitory concentration (IC50) is 0.375 µM. As to `NS(=O)(=O)c1ccc(NC(=O)COC(=O)c2ccc([N+](=O)[O-])s2)cc1`, the half-inhibitory concentration (IC50) was 8.31 µM. To `COc1ccccc1N=Nc1c(O)[nH]c(=S)[nH]c1=O` belongs “inactive”; to `O=c1[nH]c(=S)[nH]c2c1C(c1ccc(Br)cc1)c1c([nH]c(=S)[nH]c1=O)O2`, “inactive”. With `O=C(O)CSc1cc(NS(=O)(=O)c2ccc(Cl)cc2)c2ccccc2c1O`, the half-maximal inhibitory concentration (IC50) is 5 µM.

Usually IC50 stands for the concentration at which inhibition is half-maximal.

Values taken from PubChem BioAssay AID720578 (The Scripps Research Institute Molecular Screening Center, 2013).
